Experimental data taken from ChEMBL document CHEMBL1201862, “PubChem BioAssay data set” (2004).
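Cultured in 96-well plates, cells were exposed to test compound for 48 hours across five concentrations. At the GI50, growth is halved.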 The source made the active and inactive calls. Rule as the data show it: active = GI50 up to about 1.1 µM and inactive = higher.

What was measured:
Assay in all cases: growth of human tumour cells (NCI), 48 h
HCT-15 = system: HCT-15
HCT-116 = system: HCT-116
T47D = system: T47D
OVCAR-8 = system: OVCAR-8
MDA-N = system: MDA-N
NCI-H226 = system: NCI-H226
IGROV-1 = system: IGROV-1
RXF 393 = system: RXF 393
HOP-62 = system: HOP-62
SF-295 = system: SF-295
OVCAR-4 = system: OVCAR-4
SF-268 = system: SF-268
SF-539 = system: SF-539
TK-10 = system: TK-10
Malme-3M = system: Malme-3M
OVCAR-3 = system: OVCAR-3
HL-60 = system: HL-60
SK-MEL-2 = system: SK-MEL-2
CCRF-CEM = system: CCRF-CEM
DLD-1 = system: DLD-1

Structure (SMILES) | GI50 (HCT-15) [µM] | GI50 (HCT-116) | GI50 (T47D) | GI50 (OVCAR-8) | GI50 (MDA-N) | GI50 (NCI-H226) | GI50 (IGROV-1) | GI50 (RXF 393) | GI50 (HOP-62) | GI50 (SF-295) | GI50 (OVCAR-4) | GI50 (SF-268) | GI50 (SF-539) | GI50 (TK-10) | GI50 (Malme-3M) | GI50 (OVCAR-3) | GI50 (HL-60) | GI50 (SK-MEL-2) | GI50 (CCRF-CEM) | GI50 (DLD-1)
C/C=C(\C)c1cc(=O)c2c(C)cc3c(c2o1)C(=O)c1c(O)c(C2CC(C)(N(C)C)C(OC(C)=O)C(C)O2)cc(C2CC(N(C)C)C(O)C(C)O2)c1C3=O (stereo unspecified) | 1.27 | 0.185 µM (active) | 1.53 µM (inactive) | 0.542 µM (active) | 1.18 µM (inactive) | 1.31 µM (inactive) | 0.8 µM (active) | 0.505 µM (active) | 0.891 µM (active) | 1.06 µM (active) | 1.48 µM (inactive) | 0.655 µM (active) | 0.574 µM (active) | 1.06 µM (active) | 0.352 µM (active) | 2.13 µM (inactive) | 0.438 µM (active) | 1.22 µM (inactive) | 3.12 µM (inactive) | 
COC(=O)c1ccc2c(O)c(O)ccc2c1 | 13.6 | 16.7 µM (inactive) | 19.5 µM (inactive) | 16.1 µM (inactive) | 1.74 µM (inactive) | 23.1 µM (inactive) | 17.2 µM (inactive) | 17.6 µM (inactive) | 18.9 µM (inactive) | 6.98 µM (inactive) | 14.6 µM (inactive) | 19.4 µM (inactive) | 19.1 µM (inactive) | 21.5 µM (inactive) | 11.8 µM (inactive) | 7 µM (inactive) | 2.02 µM (inactive) | 1.18 µM (inactive) | 2.69 µM (inactive) | 
CCOC(=O)C(NC(=O)CC)(Nc1ccc(F)c(Cl)c1)C(F)(F)F (stereo unspecified) | > 83.4 | > 100 µM (inactive) | > 100 µM (inactive) | > 100 µM (inactive) | > 100 µM (inactive) | > 100 µM (inactive) | > 100 µM (inactive) | > 100 µM (inactive) | > 100 µM (inactive) | > 76.4 µM (inactive) | > 100 µM (inactive) | > 100 µM (inactive) | > 100 µM (inactive) | > 100 µM (inactive) | > 100 µM (inactive) | > 100 µM (inactive) | > 36.2 µM (inactive) | > 70 µM (inactive) | 35.6 µM (inactive) | 
CCCCCCCCCCCCCCCCCCNc1nc(=O)n(C2CC(O)C(COP(=O)(O)OCC(COP(=O)(O)OC3C(CO)OC(n4ccc(N)nc4=O)C3O)OCCCCCCCCCCCCCCCCCC)O2)cc1F (stereo unspecified) | 34 | 27.5 µM (inactive) | 80.9 µM (inactive) | 18.6 µM (inactive) | > 100 µM (inactive) | > 100 µM (inactive) | 46.8 µM (inactive) | 14.5 µM (inactive) | 16.5 µM (inactive) | > 100 µM (inactive) | 87.9 µM (inactive) | 91.6 µM (inactive) | 17.4 µM (inactive) | 33.1 µM (inactive) | 41.4 µM (inactive) | > 100 µM (inactive) | 8.36 µM (inactive) | > 100 µM (inactive) | 0.402 µM (active) | 
CC(C)CCC1(O)O[C@H]2C[C@H]3[C@@H]4CCC5CC(=O)C=C[C@]5(C)[C@H]4CC[C@]3(C)[C@H]2[C@@H]1C (stereo partly specified) | 11.2 | 6.79 µM (inactive) | 12 µM (inactive) | 14.2 µM (inactive) | 13.2 µM (inactive) | 0.612 µM (active) | 15.6 µM (inactive) | 11.8 µM (inactive) | 15 µM (inactive) | 11.7 µM (inactive) | 11.9 µM (inactive) | 13.4 µM (inactive) | 17.6 µM (inactive) | 11.8 µM (inactive) | 14.9 µM (inactive) | 10.8 µM (inactive) | 4.45 µM (inactive) | 15.2 µM (inactive) | 3.18 µM (inactive) | 
C[N+](C)=c1[nH]c2ccccc2[nH]1 | > 100 |  |  | > 100 µM (inactive) |  |  | > 100 µM (inactive) | > 100 µM (inactive) | > 100 µM (inactive) | > 100 µM (inactive) | > 100 µM (inactive) | > 100 µM (inactive) | > 100 µM (inactive) | > 100 µM (inactive) | > 100 µM (inactive) | > 100 µM (inactive) | > 100 µM (inactive) | > 100 µM (inactive) | > 100 µM (inactive) | > 100 µM (inactive)
